Source: patent US9554988B2, “Method for preventing or treating skin tumor” (Galderma Research & Development, priority 2010, dated 2017)
Where two headings read alike, the source gives them in different places.

Tests used:
[1] = tested on: human tumor epithelial breast cell lines or mouse mammary tumor cell line; conditions: activation of alpha-adrenoceptors; Vazquez et al. 2006, Bruzzone et al. 2008; cited from earlier work
pancreatic cancer cells = conditions: Shen et al. 2008; cited from earlier work
[2] = tested on: Albino hairless SKH1-hr mice; conditions: for Median Week to Tumor (≧1 mm): 40 weeks treatment + 12 weeks observation, time at which one-half of group has one or more qualifying tumors; for Tumor Yield (≧1 mm): average number of tumors per survivor
Procedure: Albino hairless SKH1-hr mice (36/sex/group) were treated for 40 weeks with UVR and brimonidine gel or vehicle according to the design in table 11. […] Topical treatments were performed approximately one hour before UVR on Monday, Wednesday and Friday of each week and approximately one hour after UVR Tuesday and Thursday of each week.

[3] = 0.18% topical + 600 RBU/week UVR

## Clc1cccc(Cl)c1N=C1NCCN1 [clonidine]
[1]
  Proliferation of tumor cell lines: enhanced proliferation

## Cc1cccc([C@H](C)c2cnc[nH]2)c1C [dexmedetomidine]
[1]
  Proliferation of tumor cell lines: enhanced proliferation

## Cc1cc(C(C)(C)C)c(O)c(C)c1CC1=NCCN1 [oxymetazoline]
[1]
  Proliferation of tumor cell lines: enhanced proliferation

## COC(=O)[C@@H]1[C@H]2C[C@H]3c4[nH]c5ccccc5c4CCN3C[C@@H]2CC[C@@H]1O [yohimbine]
Pancreatic cancer cells
  Apoptosis of pancreatic cancer cells: induced apoptosis
  Proliferation of pancreatic cancer cells: inhibited the proliferation

## Brimonidine tartrate
[2]; [3]
  Reduction of tumor yield (≧1 mm) compared to the vehicle group: 1.7 fold
  Median Week to Tumor (≧1 mm): 48 Week
  Tumor Yield (≧1 mm): 2.40 tumors per survivor
[2]; 1% topical + 600 RBU/week UVR
  Members of the group that acquired one or more qualifying tumors (≧1 mm) within the 52-week study period: less than one-half of the members of the groups acquired one or more qualifying tumors
  Reduction of tumor yield (≧1 mm) compared to the vehicle group: 4.7 fold
  Median Week to Tumor (≧1 mm): >52 Week
  Tumor Yield (≧1 mm): 0.85 tumors per survivor
[2]; 2% topical + 600 RBU/week UVR
  Members of the group that acquired one or more qualifying tumors (≧1 mm) within the 52-week study period: less than one-half of the members of the groups acquired one or more qualifying tumors
  Reduction of tumor yield (≧1 mm) compared to the vehicle group: 8.1 fold
  Median Week to Tumor (≧1 mm): >52 Week
  Tumor Yield (≧1 mm): 0.49 tumors per survivor
[2]; topical 0.18%, 1% and 2% concentrations
  UV-induced skin tumor formation: dose-dependent delay
[2]; with increasing concentration, perceptible, 1 mm, 2 mm, 4 mm tumors, sexes combined
  Sizes of tumors (tumor prevalence, FIG. 1): sizes of tumors were also reduced
